US10000474B2, “Histone deacetylase inhibitors and uses thereof” (MUSC FOUNDATION FOR RESEARCH DEVELOPMENT, priority 2014, dated 2018)
Counter-ions that a name gives are not always drawn. Blank lines part the entries; values can stand above or below the compound they belong to.

Assays:
Type in all cases: biochemical
Conditions in all cases: test concentration not given; average of triplicate
Recombinant human HDAC8 = target: T1, Recombinant human HDAC8 (Homo sapiens, UniProt Q9BY41); assay: HDAC inhibitory assay, HDAC8 (Ac-RHK(Ac)K(Ac)-AMC substrate)
T1 construct: purchased BPS Biosciences
T1 sequence (Q9BY41 1-377): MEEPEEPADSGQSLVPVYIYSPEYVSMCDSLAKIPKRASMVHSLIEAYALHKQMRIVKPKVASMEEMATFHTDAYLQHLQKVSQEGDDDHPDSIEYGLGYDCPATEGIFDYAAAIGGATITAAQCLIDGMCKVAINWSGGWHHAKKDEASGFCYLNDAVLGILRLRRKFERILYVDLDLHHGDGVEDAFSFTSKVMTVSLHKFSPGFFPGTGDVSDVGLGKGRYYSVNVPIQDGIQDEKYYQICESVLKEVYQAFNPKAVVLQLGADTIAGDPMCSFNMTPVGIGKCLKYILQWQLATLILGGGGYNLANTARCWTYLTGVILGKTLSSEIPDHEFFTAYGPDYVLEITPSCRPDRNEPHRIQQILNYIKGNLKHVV
Method: (§1) The compounds of Examples 1-12 and 14-16 were evaluated for their ability to act as inhibitors of human HDAC. The compound of Example 13 was not tested. Recombinant human HDAC1, HDAC2, HDAC3/NcoR2, HDAC5, HDAC6, HDAC8, HDAC9, HDAC10 and HDAC11 were purchased from BPS Biosciences. Recombinant human HDAC4 and HDAC7 were purchased from Millipore. The substrate Boc-Lys(Ac)-AMC and Boc-Lys(Tfa)-AMC were purchased from Bachem. The substrate Ac-RHK(Ac)K(Ac)-AMC was purchased from Enzo Life Sciences. Due to the different specific activities of each isoform, different amount of enzyme was used in each isoform screening assay. In these assays, trichostatin A (TSA), suberanilohydroxamic acid and diphenylacetohydroxamic acid (DPAHA) were employed as positive controls. All determinations were carried out in triplicate, and reported values were the average of these determinations, which in no case varied by more than 5%.
For evaluating the inhibition of HDAC8, 10 μl of test samples were first incubated with 25 ng HDAC8 (specific activity 298 pmol/min/μg). Then 25 μl of the fluorogenic peptide from p53 residues 379-382 (Ac-RHK(Ac)K(Ac)-AMC, 50 μM final concentration) was added and incubated at 37° C. for 30-60 min, and followed by adding 50 μl of developer (1 mg/ml trypsin and 1 uM TSA). The last step was to read the samples in a SpectraMax M5 plate reader (Molecular Devices) at an excitation wavelength of 360 nm and an emission wavelength of 460 nm.

Recombinant human HDAC7 = target: T2, Recombinant human HDAC7 (Homo sapiens, UniProt Q8WUI4); assay: HDAC inhibitory assay, HDAC7 (Boc-Lys(Tfa)-AMC substrate)
T2 construct: purchased Millipore
T2 sequence (Q8WUI4 1-952): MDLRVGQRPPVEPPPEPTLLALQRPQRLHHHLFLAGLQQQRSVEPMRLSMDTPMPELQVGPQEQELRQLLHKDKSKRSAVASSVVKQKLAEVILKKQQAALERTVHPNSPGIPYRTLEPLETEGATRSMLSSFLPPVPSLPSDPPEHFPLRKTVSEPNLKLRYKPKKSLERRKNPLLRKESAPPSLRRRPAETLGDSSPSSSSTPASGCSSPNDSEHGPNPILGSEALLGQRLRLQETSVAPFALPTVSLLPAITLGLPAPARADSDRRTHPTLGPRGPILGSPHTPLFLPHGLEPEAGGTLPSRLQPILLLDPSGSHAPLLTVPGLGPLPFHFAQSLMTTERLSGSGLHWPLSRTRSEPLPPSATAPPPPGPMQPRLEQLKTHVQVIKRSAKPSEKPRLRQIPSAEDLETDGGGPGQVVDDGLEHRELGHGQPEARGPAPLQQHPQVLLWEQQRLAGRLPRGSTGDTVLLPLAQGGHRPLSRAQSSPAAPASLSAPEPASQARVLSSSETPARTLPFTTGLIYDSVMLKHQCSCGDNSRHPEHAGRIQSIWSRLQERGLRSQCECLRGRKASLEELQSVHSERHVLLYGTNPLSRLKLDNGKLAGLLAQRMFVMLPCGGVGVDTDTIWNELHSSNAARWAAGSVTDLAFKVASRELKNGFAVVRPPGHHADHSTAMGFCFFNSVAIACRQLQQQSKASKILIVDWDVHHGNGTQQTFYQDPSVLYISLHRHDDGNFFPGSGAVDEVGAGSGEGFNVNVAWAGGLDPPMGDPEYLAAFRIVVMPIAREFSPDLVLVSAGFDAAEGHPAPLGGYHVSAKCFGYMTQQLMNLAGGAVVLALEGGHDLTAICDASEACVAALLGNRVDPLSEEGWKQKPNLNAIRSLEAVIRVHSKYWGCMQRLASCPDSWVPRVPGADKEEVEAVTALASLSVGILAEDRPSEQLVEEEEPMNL
Method: as §1
(§2) For evaluating the inhibition of class IIa HDACs (HDAC4, HDAC5, HDAC7 and HDAC9) and class IV HDAC (HDAC11), 10 μl of test samples were first incubated with 1 ng HDAC4 (specific activity=15400 pmol/min/μg), 5 ng HDAC5 (specific activity=2521 pmol/min/μg), 1 ng HDAC7 (specific activity=26340 pmol/min/μg), 5 ng HDAC9 (specific activity=3000 pmol/min/μg), and 500 ng HDAC11 (specific activity=1.8 pmol/min/μg) respectively. Then 25 μl of the Boc-Lys(Tfa)-AMC substrate (50 μM final concentration) was added and incubated at 37° C. for 30-60 min, and followed by adding 50 μl of developer. The last step was to read the samples in a SpectraMax M5 plate reader (Molecular Devices) at an excitation wavelength of 360 nm and an emission wavelength of 460 nm.

Recombinant human HDAC4 = target: T3, Recombinant human HDAC4 (Homo sapiens, UniProt P56524); assay: HDAC inhibitory assay, HDAC4 (Boc-Lys(Tfa)-AMC substrate)
T3 construct: purchased Millipore
Method: as §1, §2

T3 sequence (P56524 whole entry): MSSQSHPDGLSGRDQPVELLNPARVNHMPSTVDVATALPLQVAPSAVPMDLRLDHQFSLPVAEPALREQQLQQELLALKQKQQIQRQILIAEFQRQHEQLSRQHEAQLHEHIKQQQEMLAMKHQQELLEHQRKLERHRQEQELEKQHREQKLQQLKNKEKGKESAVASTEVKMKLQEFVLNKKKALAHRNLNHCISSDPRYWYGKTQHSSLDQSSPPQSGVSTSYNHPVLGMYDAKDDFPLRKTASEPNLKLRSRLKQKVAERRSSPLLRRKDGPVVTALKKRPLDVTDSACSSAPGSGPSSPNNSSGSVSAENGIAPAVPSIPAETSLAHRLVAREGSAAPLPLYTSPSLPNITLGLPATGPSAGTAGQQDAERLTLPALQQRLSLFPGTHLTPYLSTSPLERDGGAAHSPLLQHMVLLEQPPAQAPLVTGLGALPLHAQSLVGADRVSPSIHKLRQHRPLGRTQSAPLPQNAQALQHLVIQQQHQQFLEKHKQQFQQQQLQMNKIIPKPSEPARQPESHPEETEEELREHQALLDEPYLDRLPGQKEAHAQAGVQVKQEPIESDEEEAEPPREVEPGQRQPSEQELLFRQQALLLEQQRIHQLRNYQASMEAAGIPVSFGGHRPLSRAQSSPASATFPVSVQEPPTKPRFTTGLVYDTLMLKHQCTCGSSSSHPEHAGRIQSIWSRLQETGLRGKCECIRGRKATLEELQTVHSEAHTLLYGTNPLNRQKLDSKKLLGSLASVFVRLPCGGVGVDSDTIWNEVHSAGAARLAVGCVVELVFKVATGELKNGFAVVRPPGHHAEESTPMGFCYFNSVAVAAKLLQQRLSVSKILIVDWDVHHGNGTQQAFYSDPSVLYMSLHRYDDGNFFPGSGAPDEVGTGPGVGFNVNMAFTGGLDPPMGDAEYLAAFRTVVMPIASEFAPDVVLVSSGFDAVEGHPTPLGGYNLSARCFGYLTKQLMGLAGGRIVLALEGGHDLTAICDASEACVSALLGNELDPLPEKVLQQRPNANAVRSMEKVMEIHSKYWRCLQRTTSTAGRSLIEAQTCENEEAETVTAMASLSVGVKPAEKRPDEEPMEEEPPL

SMILES: O=C(NCCC(c1ccccc1)c1ccccc1)c1coc(-c2ccccc2O)n1 [Example 4, N-(3,3-Diphenylpropyl)-2-(2-hydroxyphenyl)oxazole-4-carboxamide]
HDAC 8 inhibitory activity (Recombinant human HDAC8): 7.2%
HDAC 7 inhibitory activity (Recombinant human HDAC7): 0.7%
HDAC 4 inhibitory activity (Recombinant human HDAC4): 25.8%

SMILES: O=C(NCC(c1ccccc1)c1ccccc1)c1coc(-c2ccccc2O)n1 [Example 3, N-(2,2-Diphenylethyl)-2-(2-hydroxyphenyl)oxazole-4-carboxamide]
HDAC 8 inhibitory activity (Recombinant human HDAC8): 16.7%
HDAC 7 inhibitory activity (Recombinant human HDAC7): 4.1%
HDAC 4 inhibitory activity (Recombinant human HDAC4): 8.5%

SMILES: O=C(Nc1ccc(-c2ccccc2)cc1)c1coc(-c2ccccc2O)n1 [Example 5, N-([1,1′-Biphenyl]-4-yl)-2-(2-hydroxyphenyl)oxazole-4-carboxamide]
HDAC 8 inhibitory activity (Recombinant human HDAC8): 7.2%
HDAC 7 inhibitory activity (Recombinant human HDAC7): 19.4%
HDAC 4 inhibitory activity (Recombinant human HDAC4): 25.5%

SMILES: O=C(NCc1cccc2ccccc12)c1coc(-c2ccccc2O)n1 [Example 7, 2-(2-Hydroxyphenyl)-N-(naphthalen-1-ylmethyl)oxazole-4-carboxamide]
HDAC 8 inhibitory activity (Recombinant human HDAC8): 10.6%
HDAC 7 inhibitory activity (Recombinant human HDAC7): 3.8%
HDAC 4 inhibitory activity (Recombinant human HDAC4): 21.3%

SMILES: O=C(NCc1ccc(-c2ccccc2)cc1)c1coc(-c2ccccc2O)n1 [Example 6, N-([1,1′-Biphenyl]-4-ylmethyl)-2-(2-hydroxyphenyl)oxazole-4-carboxamide]
HDAC 8 inhibitory activity (Recombinant human HDAC8): 17.9%
HDAC 7 inhibitory activity (Recombinant human HDAC7): 1.4%
HDAC 4 inhibitory activity (Recombinant human HDAC4): 24.4%

SMILES: O=C(NCCc1c[nH]c2ccccc12)c1coc(-c2ccccc2O)n1 [Example 8, N-(2-(1H-Indol-3-yl)ethyl)-2-(2-hydroxyphenyl)oxazole-4-carboxamide]
HDAC 8 inhibitory activity (Recombinant human HDAC8): 7.7%
HDAC 7 inhibitory activity (Recombinant human HDAC7): 3.8%
HDAC 4 inhibitory activity (Recombinant human HDAC4): 7.5%

SMILES: O=C(NC(c1ccccc1)c1ccccc1)c1coc(-c2ccccc2O)n1 [Example 2, N-Benzhydryl-2-(2-hydroxyphenyl)oxazole-4-carboxamide]
HDAC 8 inhibitory activity (Recombinant human HDAC8): 23.3%
HDAC 7 inhibitory activity (Recombinant human HDAC7): 9.2%
HDAC 4 inhibitory activity (Recombinant human HDAC4): 20.7%

SMILES: O=C(Nc1ccccc1)c1coc(-c2ccccc2O)n1 [Example 1, 2-(2-Hydroxyphenyl)-N-phenyloxazole-4-carboxamide]
HDAC 8 inhibitory activity (Recombinant human HDAC8): 0%
HDAC 7 inhibitory activity (Recombinant human HDAC7): 1.3%
HDAC 4 inhibitory activity (Recombinant human HDAC4): 17.1%

Next, values leading:

HDAC 8 inhibitory activity (Recombinant human HDAC8): 9.6%
HDAC 7 inhibitory activity (Recombinant human HDAC7): 1.1%
HDAC 4 inhibitory activity (Recombinant human HDAC4): 17.5%
SMILES: O=C(NCCCCN1C(=O)c2ccccc2C1=O)c1coc(-c2ccccc2O)n1 [Example 9, N-(4-(1,3-Dioxoisoindolin-2-yl)butyl)-2-(2-hydroxyphenyl)oxazole-4-carboxamide]

HDAC 8 inhibitory activity (Recombinant human HDAC8): 0%
HDAC 7 inhibitory activity (Recombinant human HDAC7): 9.9%
HDAC 4 inhibitory activity (Recombinant human HDAC4): 18.3%
SMILES: O=C(Nc1ccccc1)c1ccc(CNC(=O)c2coc(-c3ccccc3O)n2)cc1 [Example 15, 2-(2-Hydroxyphenyl)-N-(4-(phenylcarbamoyl)benzyl)oxazole-4-carboxamide]

HDAC 8 inhibitory activity (Recombinant human HDAC8): 14.0%
HDAC 7 inhibitory activity (Recombinant human HDAC7): 0%
HDAC 4 inhibitory activity (Recombinant human HDAC4): 6.5%
SMILES: O=C(NCCCCNCCC(c1ccccc1)c1ccccc1)c1coc(-c2ccccc2O)n1 [Example 12, N-(4-((3,3-Diphenylpropyl)amino)butyl)-2-(2-hydroxyphenyl)oxazole-4-carboxamide hydrochloride]

HDAC 8 inhibitory activity (Recombinant human HDAC8): 20.0%
HDAC 7 inhibitory activity (Recombinant human HDAC7): 9.3%
HDAC 4 inhibitory activity (Recombinant human HDAC4): 24.2%
SMILES: O=C(O)c1ccc(CNC(=O)c2coc(-c3ccccc3O)n2)cc1 [Example 14, 4-((2-(2-Hydroxyphenyl)oxazole-4-carboxamido)methyl)benzoic acid]

HDAC 8 inhibitory activity (Recombinant human HDAC8): 0%
HDAC 7 inhibitory activity (Recombinant human HDAC7): 2.2%
HDAC 4 inhibitory activity (Recombinant human HDAC4): 4.8%
SMILES: O=C(NCCCCNC(=O)C(c1ccccc1)c1ccccc1)c1coc(-c2ccccc2O)n1 [Example 10, N-(4-(2,2-Diphenylacetamido)butyl)-2-(2-hydroxyphenyl)oxazole-4-carboxamide]

HDAC 8 inhibitory activity (Recombinant human HDAC8): 15.0%
HDAC 7 inhibitory activity (Recombinant human HDAC7): 0%
HDAC 4 inhibitory activity (Recombinant human HDAC4): 28.1%
SMILES: O=C(CNC(=O)c1coc(-c2ccccc2O)n1)Nc1ccccc1 [Example 16, 2-(2-Hydroxyphenyl)-N-(2-oxo-2-(phenylamino)ethyl)oxazole-4-carboxamide]

HDAC 8 inhibitory activity (Recombinant human HDAC8): 0%
HDAC 7 inhibitory activity (Recombinant human HDAC7): 21.9%
HDAC 4 inhibitory activity (Recombinant human HDAC4): 55.8%
SMILES: O=C(NCCCCNC(=S)NCCC(c1ccccc1)c1ccccc1)c1coc(-c2ccccc2O)n1 [Example 11, N-(4-(3-(3,3-Diphenylpropyl)thioureido)butyl)-2-(2-hydroxyphenyl)oxazole-4-carboxamide]
